Measurements published in patent US11850220B2 (Augusta University Research Institute, Inc., priority 2020, dated 2023).

Experiments:
[1] = test system: carrageenan-induced paw edema; experiment: carrageenan-induced paw edema technique (anti-inflammatory); type: in vivo; conditions: for Observed (1/property): 1/(% inhibition of edema thickness at 3 h effect); as to Observed (1/property): test concentration or dose not given here; as to Potency (% Inhibition relative to indomethacin at 3 h effect): test concentration or dose not given here
From the text: Anti-inflammatory properties of the ibuprofen-amino acid conjugate (5a-j) and ibuprofen-amino acid-4-aminophenol conjugates 7a-j were studied by the standard carrageenan-induced paw edema technique (Naumov, R. N. et al., Bioorg. Med. Chem. Lett. 2015, 25, 2314-2320; Tiwari, A. D. et al., Org. Biomol. Chem. 2014, 12, 7238-7249).

[2] = test system: acetic acid-induced abdominal writhing; experiment: acetic acid-induced abdominal writhing technique (peripheral analgesic); type: in vivo; conditions: for Potency: Relative to indomethacin; for % Inhibition/protection / Writing reflex ± SEM: in vivo; as to % Inhibition/protection: test concentration or dose not given here; as to Writing reflex ± SEM: test concentration or dose not given here
hot plate = hot plate technique (central analgesic); type: in vivo; conditions: for Potency: Relative to indomethacin at 120 min.
animal gastric mucosa = experiment: ulcerogenic liability; type: in vivo
[3] = % inhibition of edema thickness at 3 h effect, Table 7
[4] = anti-inflammatory property (% inhibition of edema at 3 h), Table 8
[5] = same dose as anti-inflammatory testing

| SMILES | % inhibition of edema ([1]; 1 h) | Mean edema thickness ([1]; 1 h) | % inhibition of edema ([1]; 2 h) | Mean edema thickness ([1]; 2 h) | % inhibition of edema ([1]; 3 h) | Mean edema thickness ([1]; 3 h) | % inhibition of edema ([1]; 4 h) | Mean edema thickness ([1]; 4 h) | % inhibition of edema ([1]; 24 h) | Mean edema thickness ([1]; 24 h) | Potency [2] | % Inhibition/protection [2] | Writing reflex ± SEM [2] | % protection (hot plate; After 30 min.) | Latency period ± SEM (hot plate; After 30 min.) | % protection (hot plate; After 60 min.) | Latency period ± SEM (hot plate; After 60 min.) | % protection (hot plate; After 90 min.) | Latency period ± SEM (hot plate; After 90 min.) | % protection (hot plate; After 120 min.) | further results |
| --- | --- | --- | --- | --- | --- | --- | --- | --- | --- | --- | --- | --- | --- | --- | --- | --- | --- | --- | --- | --- | --- |
| CSCC[C@H](NC(=O)C(C)c1ccc(CC(C)C)cc1)C(=O)Nc1ccc(O)cc1 (stereo partly drawn) [Compound 7i, (2S)-N-(4-Hydroxyphenyl)-2-(2-(4-isobutylphenyl)propanamido)-4-(methylthio)butanamide] | 34% | 0.81 ± 0.04 mm | 48% | 0.79 ± 0.04 mm | 56% | 0.57 ± 0.02 mm | 49% | 0.64 ± 0.03 mm | 5% | 0.18 ± 0.02 mm | 128 | 70.4% | 28.8 ± 1.0 | (86.4) % | 4.51 ± 0.07 s | (90.1) % | 4.24 ± 0.05 s | (97.7) % | 4.35 ± 0.02 s | (121.5) % | Observed (1/property) ([1]; Table 7): 0.01786; Observed property [1, 3]: 56%; Observed property [1, 4]: 56%; Potency (% Inhibition relative to indomethacin at 3 h effect) [1]: 70%; Latency period ± SEM (hot plate; After 120 min.): 4.85 ± 0.04 s; Potency (hot plate): 215; melting point: 190.8 °C |
| CC(C)Cc1ccc(C(C)C(=O)NCCC(=O)Nc2ccc(O)cc2)cc1 (centres unmarked) [Compound 7c, N-(4-Hydroxyphenyl)-3-(2-(4-isobutylphenyl)propanamido)propanamide] | 35% | 0.80 ± 0.03 mm | 58% | 0.63 ± 0.03 mm | 67% | 0.43 ± 0.02 mm | 70% | 0.38 ± 0.01 mm | 0% | 0.19 ± 0.02 mm | 115 | 63.0% | 36.0 ± 1.3 | (58.3) % | 3.83 ± 0.03 s | (53.4) % | 3.42 ± 0.12 s | (52.7) % | 3.36 ± 0.15 s | (52.1) % | Observed (1/property) ([1]; Table 7): 0.01493; Observed property [1, 3]: 67%; Observed property [1, 4]: 67%; Potency (% Inhibition relative to indomethacin at 3 h effect) [1]: 84%; Latency period ± SEM (hot plate; After 120 min.): 3.33 ± 0.11 s; Potency (hot plate): 92; melting point: 155.5 °C |
| COc1ccc2c(c1)c(CC(=O)O)c(C)n2C(=O)c1ccc(Cl)cc1 [Indomethacin, reference compound] | 44% | 0.69 ± 0.05 mm | 45% | 0.83 ± 0.04 mm | 80% | 0.26 ± 0.03 mm | 66% | 0.43 ± 0.05 mm | 53% | 0.09 ± 0.02 mm | 100 | 54.9% | 43.9 ± 1.9 | (30.6) % | 3.16 ± 0.02 s | (35.4) % | 3.02 ± 0.04 s | (49.5) % | 3.29 ± 0.01 s | (56.6) % | Potency (% Inhibition relative to indomethacin at 3 h effect) [1]: 100%; % Incidence of ulcer divided by 10 (animal gastric mucosa; [5]): 10; Average of ulcer number (animal gastric mucosa; [5]): 2; Average severity of ulcer (animal gastric mucosa; [5]): 1.67; Number of animals with ulcer (animal gastric mucosa; [5]): 6/6; Ulcer index (animal gastric mucosa; [5]): 13.67; % protection (hot plate; After 0 min.): (6.4) %; Latency period ± SEM (hot plate; After 0 min.): 3.15 ± 0.03 s; Latency period ± SEM (hot plate; After 120 min.): 3.43 ± 0.05 s; Potency (hot plate): 100 |
| CC(C)Cc1ccc(C(C)C(=O)O)cc1 (centres unmarked) [Ibuprofen, reference compound] | 25% | 0.92 ± 0.02 mm | 37% | 0.95 ± 0.03 mm | 71% | 0.38 ± 0.01 mm | 49% | 0.64 ± 0.02 mm | 32% | 0.13 ± 0.01 mm | 93 | 50.8% | 47.9 ± 2.1 | (25.2) % | 3.03 ± 0.04 s | (30.5) % | 2.91 ± 0.02 s | (40.5) % | 3.09 ± 0.04 s | (50.2) % | % Incidence of ulcer divided by 10 (animal gastric mucosa; [5]): 3.33; Average of ulcer number (animal gastric mucosa; [5]): 0.33; Average severity of ulcer (animal gastric mucosa; [5]): 0.67; Number of animals with ulcer (animal gastric mucosa; [5]): 2/6; Latency period ± SEM (hot plate; After 120 min.): 3.29 ± 0.03 s; Potency (hot plate): 89 |
| CC[C@H](C)C(NC(=O)C(C)c1ccc(CC(C)C)cc1)C(=O)O (stereo in doubt) [Compound 5f, (2-(4-Isobutylphenyl)propanoyl)-L-isoleucine] | 27% | 0.90 ± 0.05 mm | 29% | 1.07 ± 0.06 mm | 62% | 0.50 ± 0.03 mm | 29% | 0.89 ± 0.04 mm | 47% | 0.10 ± 0.03 mm | 85 | 46.8% | 51.8 ± 1.6 | (14.9) % | 2.78 ± 0.05 s | (15.2) % | 2.57 ± 0.07 s | (25.9) % | 2.77 ± 0.05 s | (48.9) % | Observed (1/property) ([1]; Table 7): 0.01613; Observed property [1, 3]: 62%; Observed property [1, 4]: 62%; Potency (% Inhibition relative to indomethacin at 3 h effect) [1]: 78%; Latency period ± SEM (hot plate; After 120 min.): 3.26 ± 0.04 s; Potency (hot plate): 86 |
| CC(C)Cc1ccc(C(C)C(=O)NCC(=O)O)cc1 (centres unmarked) [Compound 5a, (2-(4-Isobutylphenyl)propanoyl)glycine] | 53% | 0.58 ± 0.02 mm | 66% | 0.51 ± 0.04 mm | 72% | 0.37 ± 0.06 mm | 67% | 0.41 ± 0.04 mm | 68% | 0.06 ± 0.01 mm | 83 | 45.6% | 52.9 ± 1.3 | (15.3) % | 2.79 ± 0.03 s | (28.3) % | 2.86 ± 0.04 s | (29.1) % | 2.84 ± 0.02 s | (29.7) % | Observed (1/property) ([1]; Table 7): 0.01389; Observed property [1, 3]: 72%; Observed property [1, 4]: 72%; Potency (% Inhibition relative to indomethacin at 3 h effect) [1]: 90%; % Incidence of ulcer divided by 10 (animal gastric mucosa; in vivo): 0; Average of ulcer number (animal gastric mucosa; in vivo): 0; Average severity of ulcer (animal gastric mucosa; in vivo): 0; Number of animals with ulcer (animal gastric mucosa; in vivo): 0; Ulcer index (animal gastric mucosa; in vivo): 0; Latency period ± SEM (hot plate; After 120 min.): 2.84 ± 0.05 s; Potency (hot plate): 52 |
